Patent US8889731B2, “Compounds, compositions and methods for repelling blood-feeding arthropods and deterring their landing and feeding” (Contech Enterprises Inc., priority 2007, dated 2014)

Key:
Type in all cases: in vivo
Aedes aegypti = test: Arm-in-cage repellent/deterrent bioassay on exposed human forearm (modified WHO protocol), Aedes aegypti
Experimental: (§1) Candidate repellents and deterrents were bioassayed according to a modified protocol from the World Health Organization (1996). At least 1 hour prior to each bioassay, 75 host-seeking non blood-fed, nulliparous, 5- to 8-day-old female Aedes aegypti, Anopheles gambiae or Culex quinquefasciatus were placed into a wood-framed cage (26.5 cm on each side and 42.5 cm high) with a wooden floor, screened mesh sides and top, and a clear acrylic front fitted with a cotton stockinette sleeve (10 cm diameter). The test subject's arm was covered with an elbow-length polyethylene glove with an excised patch (16.6 cm long, 6 cm wide) to expose the ventral forearm of the test subject. Candidate deterrents were formulated in mineral (paraffin) oil and applied to the exposed forearm 5 min prior to inserting the arm into the cage. The inserted arm remained in the cage for 3 min every 30 min. Prior to each 3-min bioassay period, the hand of the untreated arm was inserted into the cage to ascertain that it received 10 bites within 30 sec as an indication of “biting pressure”.
(§2) The bioassay was terminated when the treated arm received ≧2 bites in one 3-min bioassay period or one bite in each of two consecutive bioassay periods. The time elapsed from experiment initiation to first bite was recorded as deterrent failure or complete protection time.
(§3) N,N-diethyl-m-toluamide formulated in ethanol at a corresponding dose served as a positive control, and mineral oil by itself served as a negative control. On each day, only one candidate compound was tested, ensuring that any residual material in the chamber had disappeared before the next bioassay.
To determine the repellence and deterrence of 8-allylsulfanyloctan-1-ol against Aedes aegypti, a 5%, 10% or 25% formulation of 8-allylsulfanyloctan-1-ol in mineral oil was applied in Experiments 1-3 at a dose of 1.5 mg (total composition) per cm^2 to the skin of the test person, and was bioassayed according to the protocol described under EXAMPLE 2. In Experiment 4, mineral oil by itself served as a negative control and was bioassayed at the same dose (1.5 mg per cm^2) as in Experiments 1-3. Each of Experiments 1-4 was replicated four times.
To compare the repellence and deterrence against Aedes aegypti caused by 8-allylsulfanyloctan-1-ol as a single active ingredient and by 8-allylsulfanyloctan-1-ol in combination with vanillin as a second active ingredient, we tested a 6.7% emulsion of vanillin (Experiment 14), a 6.7% emulsion of 8-allylsulfanyloctan-1-ol (Experiment 15), and a 13.4% emulsion of 8-allylsulfanyloctan-1-ol plus vanillin (1:1 ratio) (Experiment 16). 8-Allylsulfanyloctan-1-ol and vanillin were formulated in Emulsion No. 1 (see EXAMPLE 9). In each of Experiments […], test stimuli were applied at a dose of 1.5 mg per cm^2 to the skin of the test person, and were bioassayed according to the protocol described under EXAMPLE 2. In Experiment 17, Emulsion No. 1 served as a positive control and was tested at the same dose (1.5 mg per cm^2) as in Experiments 14-16.
To be able to compare the repellence and deterrence caused by N,N-diethyl-m-toluamide and by 8-allylsulfanyloctan-1-ol plus vanillin in Emulsion No. 1 (EXAMPLE 9), Experiment 26 tested a 6.7% formulation of N,N-diethyl-m-toluamide in ethanol (the best formulant for DEET) for protection from bites by Aedes egypti. In each replicate, a dose of 1.5 mg per […] was applied to the skin of the test person and bioassayed according to the protocol described under EXAMPLE 2.
To be able to further compare the deterrence caused by N,N-diethyl-m-toluamide with that caused by 8-allylsulfanyloctan-1-ol plus vanillin, Experiment 27 tested a 10.4% formulation of N,N-diethyl-m-toluamide in ethanol, and Experiment 28 tested 8-allylsulfanyloctan-1-ol (10.4%) plus vanillin (7.9%) in Emulsion No. 2 (EXAMPLE 10). […]

Anopheles gambiae = test: Arm-in-cage repellent/deterrent bioassay on exposed human forearm (modified WHO protocol), Anopheles gambiae
Experimental: as §1, §2, §3
To determine the repellence and deterrence of 8-allylsulfanyloctan-1-ol against Anopheles gambiae, a 2%, 5% or a 10% formulation of 8-allylsulfanyloctan-1-ol in mineral oil was applied in Experiments 5-7 at a dose of 1.5 mg per cm^2 to the skin of the test person, and was bioassayed according to the protocol described under EXAMPLE 2. In Experiment 8, mineral oil by itself served as a negative control and was tested at the same dose (1.5 mg per cm^2) as in Experiments 5-7. Each of Experiments 5-8 was replicated 4 times.
To be able to compare the repellence and deterrence caused N,N-diethyl-m-toluamide (DEET), and by 8-allylsulfanyloctan-1-ol, Experiment 13 tested a 2% formulation of N,N-diethyl-m-toluamide in ethanol (the best formulant for this compound) for protection from bites by Anopheles gambiae. A dose of 1.5 mg per cm^2 was applied to the skin of the test person and bioassayed according to the protocol described under EXAMPLE 2.
To compare the repellence and deterrence against Anopheles gambiae caused by 8-allyl-sulfanyloctan-1-ol as a single active ingredient and by 8-allylsulfanyloctan-1-ol in combination with vanillin as a second active ingredient, we tested a 6.7% emulsion of vanillin (Experiment 18), a 6.7-% emulsion of 8-allylsulfanyl-octan-1-ol (Experiment 19) and a 13.4% emulsion of 8-allylsulfanyloctan-1-ol plus vanillin (1:1 ratio) (Experiment 20). 8-Allylsulfanyloctan-1-ol and vanillin were formulated in Emulsion No. 1 (see EXAMPLE 9). In each of Experiments 18-20, test stimuli were applied at a dose of 1.5 mg per cm^2 to the skin of the test person, and were bioassayed according to the protocol described under EXAMPLE 2. In Experiment 21, Emulsion No. 1 served as a positive control and was tested at the same dose (1.5 mg per cm^2) as in experiments 18-20. Each of Experiments 18-21 was replicated three times.

mosquitoes = test: General bioassay procedure with garlic oil, its components and fractions (mosquito species not given)
Experimental: as §1, §2, §3
Garlic oil (Allium sativum—Mexico; Clearwater Soap Works, Box 1775 RR1, Clearwater, BC V0E 1N0, Canada) was formulated in mineral oil and tested using the general bioassay procedure described in EXAMPLE 2 at a dose of 0.1 mg per cm^2 of arm surface. It expressed repellence and deterrence for ˜30 min.
Some of the 10 components in FIG. 1 were bioassayed singly (see general bioassay procedure) and in various combinations, all of which were as deterrent to mosquitoes as garlic oil.
To determine the most deterrent component(s) in garlic oil, it was fractionated by HPLC into four fractions, each containing one or more of the EAD-active components (compounds 1-10 in FIG. 1 and 11-14 in TABLE 2). Each fraction was then bioassayed and shown to be similarly effective in repelling and deterring mosquitoes.
Components with high molecular weight (>250 daltons) are advantageous in that they: 1) dissipate slowly from treated surfaces; 2) provide long-lasting protection against mosquitoes and 3) convey little, if any, offensive smell. The relative abundance of such components was enhanced by treating garlic oil under vacuum, thus stripping away lower-boiling components. In GC-EAD analyses of the high-boiling residue, four components elicited responses from mosquito antennae.

## C=CCSCCCCCCCCO [Compound 24, 8-allylsulfanyloctan-1-ol]
Aedes aegypti; 5% formulation in mineral oil, 1.5 mg per cm^2, Experiment 1
  protection from bites, average duration: 52 min
Aedes aegypti; 6.7% single active in Emulsion No. 1, 1.5 mg per cm^2, Experiments 14, 15
  protection from bites, average duration: 77 min
Aedes aegypti; 10% formulation in mineral oil, 1.5 mg per cm^2, Experiment 2
  protection from bites, average duration: 157 min
Aedes aegypti; 25% formulation in mineral oil, 1.5 mg per cm^2, Experiment 3
  protection from bites, average duration: 305 min
Anopheles gambiae; 2% formulation in mineral oil, 1.5 mg per cm^2, Experiment 5
  protection from bites, average duration: 297 min
Anopheles gambiae; 5% formulation in mineral oil, 1.5 mg per cm^2, Experiment 6
  protection from bites, average duration: 314 min
Anopheles gambiae; 6.7% single active in Emulsion No. 1 (FIG. 8 legend: 2.0%), 1.5 mg per cm^2, Experiments 18, 19
  protection from bites, average duration: 369 min
Anopheles gambiae; 10% formulation in mineral oil, 1.5 mg per cm^2, Experiment 7
  protection from bites, average duration: 487 min
mosquitoes
  repellent and deterrent effect in bioassays (in words): very potent, even at a low dose
